According to PubChem BioAssay (NCI):
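Growth conditions: 96-well plates. Treatment: test compound, 48 hours, 5 concentrations. Analysis: linear interpolation between bracketing concentrations; unreached endpoints set to highest concentration. GI50 is the concentration that inhibits growth by half. TGI: total growth inhibition.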

Legend:
Test in all cases: NCI-60 cell line screen, 48 h
MALME-3M melanoma = test system: MALME-3M melanoma
NCI-H23 lung = test system: NCI-H23 lung
SF-268 CNS = test system: SF-268 CNS
SF-539 CNS = test system: SF-539 CNS
ACHN renal = test system: ACHN renal
SK-MEL-28 melanoma = test system: SK-MEL-28 melanoma
SK-MEL-2 melanoma = test system: SK-MEL-2 melanoma
UO-31 renal = test system: UO-31 renal
A549 NSCLC = test system: A549 NSCLC
A498 renal = test system: A498 renal

With `Cc1cc(N(CCC#N)S(=O)(=O)c2ccccc2)ccc1C=Nc1cccc(C(=O)O)c1` the TGI (MALME-3M melanoma) was greater than 100 µM, the TGI (NCI-H23 lung) was greater than 100 µM and the TGI (SF-268 CNS) was greater than 100 µM. The TGI (SF-539 CNS) was greater than 100 µM, the TGI (ACHN renal) was greater than 100 µM and the TGI (SK-MEL-28 melanoma) was greater than 100 µM. For the same compound, the TGI (SK-MEL-2 melanoma) was greater than 100 µM, the TGI (UO-31 renal) was greater than 100 µM and the TGI (A549 NSCLC) was greater than 100 µM.

In the case of `Cc1c(C)c2c(c(C)c1OC(=O)CCC(=O)[O-])CCC(C)(CCCCCCCCCCC[P+](c1ccccc1)(c1ccccc1)c1ccccc1)O2` (stereo unspecified), the GI50 (NCI-H23 lung) was 0.159 µM, the TGI (NCI-H23 lung) was 0.671 µM and the GI50 (SF-539 CNS) was 0.185 µM. It also gave a TGI (SF-539 CNS) of 0.721 µM, a GI50 (ACHN renal) of 0.264 µM and a TGI (ACHN renal) of 0.909 µM. The GI50 (SK-MEL-28 melanoma) was 0.241 µM, the TGI (SK-MEL-28 melanoma) was 0.829 µM and the GI50 (A498 renal) was 0.0851 µM. The TGI (A498 renal) was 0.41 µM, the GI50 (UO-31 renal) was 0.744 µM and the TGI (UO-31 renal) was 1.42 µM. The GI50 (A549 NSCLC) was 0.234 µM and the TGI (A549 NSCLC) was 4.58 µM.

`O=C([CH-]C(=O)c1ccccc1)c1ccccc1.[C-]#[O+].[C-]#[O+].[Ir]` showed a GI50 (MALME-3M melanoma) greater than 100 µM, a TGI (MALME-3M melanoma) greater than 100 µM and a GI50 (NCI-H23 lung) of 52.8 µM. For the same compound, the TGI (NCI-H23 lung) was greater than 100 µM, the GI50 (SF-539 CNS) was 99.4 µM and the TGI (SF-539 CNS) was greater than 100 µM. For the same compound, the GI50 (SK-MEL-28 melanoma) was 87 µM, the TGI (SK-MEL-28 melanoma) was greater than 100 µM and the GI50 (SK-MEL-2 melanoma) was greater than 100 µM. It also gave a TGI (SK-MEL-2 melanoma) greater than 100 µM, a GI50 (UO-31 renal) of 45.2 µM and a TGI (UO-31 renal) greater than 100 µM. The GI50 (A549 NSCLC) was 82.9 µM and the TGI (A549 NSCLC) was greater than 100 µM.

With `CON(C)c1nc(N)c(C#N)c(C#N)c1C#N` the TGI (MALME-3M melanoma) was greater than 10 µM, the TGI (NCI-H23 lung) was greater than 10 µM and the TGI (SF-268 CNS) was greater than 10 µM. It also gave a TGI (SF-539 CNS) greater than 10 µM, a TGI (ACHN renal) greater than 10 µM and a TGI (SK-MEL-28 melanoma) greater than 10 µM. The TGI (SK-MEL-2 melanoma) was greater than 10 µM, the TGI (A498 renal) was greater than 10 µM and the TGI (UO-31 renal) was greater than 10 µM. For the same compound, the TGI (A549 NSCLC) was greater than 10 µM.

In the case of `C=C1CC[C@@]2(C)[C@@H]([C@@H]1C)[C@H]1CC[C@@H]3[C@@]4(C)CC[C@H](O)C(C)(C)[C@@H]4CC[C@@]3(C)[C@]1(C)C[C@@H]2O`, the TGI (MALME-3M melanoma) was 12.3 µM, the TGI (NCI-H23 lung) was 5.64 µM and the TGI (SF-268 CNS) was 9.76 µM. It also gave a TGI (SF-539 CNS) of 6.29 µM, a TGI (ACHN renal) of 4.44 µM and a TGI (SK-MEL-28 melanoma) of 20.3 µM. The TGI (SK-MEL-2 melanoma) was 12.7 µM, the TGI (A498 renal) was 4.35 µM and the TGI (UO-31 renal) was 5.67 µM. For the same compound, the TGI (A549 NSCLC) was 4.65 µM.

`C1=N[C@]23C(=N[C@H](N=C2NCc2ccco2)[C@]24N=CNC2=N[C@H]3N=C4NCc2ccco2)N1` showed a GI50 (MALME-3M melanoma) greater than 100 µM, a TGI (MALME-3M melanoma) greater than 100 µM and a GI50 (NCI-H23 lung) greater than 100 µM. It also gave a TGI (NCI-H23 lung) greater than 100 µM, a GI50 (SF-268 CNS) greater than 100 µM and a TGI (SF-268 CNS) greater than 100 µM. It also gave a GI50 (SF-539 CNS) greater than 100 µM, a TGI (SF-539 CNS) greater than 100 µM and a GI50 (ACHN renal) greater than 100 µM. For the same compound, the TGI (ACHN renal) was greater than 100 µM, the GI50 (SK-MEL-28 melanoma) was greater than 100 µM and the TGI (SK-MEL-28 melanoma) was greater than 100 µM. The GI50 (SK-MEL-2 melanoma) was greater than 100 µM, the TGI (SK-MEL-2 melanoma) was greater than 100 µM and the GI50 (A498 renal) was 5.8 µM. For the same compound, the TGI (A498 renal) was greater than 100 µM, the GI50 (UO-31 renal) was greater than 100 µM and the TGI (UO-31 renal) was greater than 100 µM. It also gave a GI50 (A549 NSCLC) greater than 100 µM and a TGI (A549 NSCLC) greater than 100 µM.

Work on `CC1(CO)C(O)CCC2(C)C1CCC1CC3CC12CCC3(O)CO` (stereo unspecified) yielded a TGI (MALME-3M melanoma) greater than 100 µM, a TGI (NCI-H23 lung) greater than 100 µM and a TGI (SF-268 CNS) greater than 100 µM. It also gave a TGI (SF-539 CNS) greater than 44.5 µM, a TGI (SK-MEL-28 melanoma) greater than 100 µM and a TGI (SK-MEL-2 melanoma) greater than 100 µM. The TGI (A498 renal) was 99 µM, the TGI (UO-31 renal) was 98.8 µM and the TGI (A549 NSCLC) was greater than 100 µM.

In the case of `COc1cccc(N/C(C)=C2/CCOC2=O)c1`, the TGI (MALME-3M melanoma) was greater than 10 µM, the TGI (NCI-H23 lung) was greater than 10 µM and the TGI (SF-268 CNS) was greater than 10 µM. The TGI (SF-539 CNS) was greater than 10 µM, the TGI (ACHN renal) was greater than 10 µM and the TGI (SK-MEL-28 melanoma) was greater than 10 µM. For the same compound, the TGI (SK-MEL-2 melanoma) was greater than 10 µM, the TGI (A498 renal) was greater than 10 µM and the TGI (UO-31 renal) was greater than 10 µM. For the same compound, the TGI (A549 NSCLC) was greater than 10 µM.

In the case of `O=C(NN1C(=O)C(Cl)C1c1cccc(O)c1)c1ccccc1O` (stereo unspecified), the TGI (MALME-3M melanoma) was greater than 100 µM, the TGI (NCI-H23 lung) was greater than 100 µM and the TGI (SF-268 CNS) was greater than 100 µM. The TGI (SF-539 CNS) was greater than 100 µM, the TGI (ACHN renal) was greater than 100 µM and the TGI (SK-MEL-28 melanoma) was greater than 100 µM. It also gave a TGI (SK-MEL-2 melanoma) greater than 100 µM, a TGI (A498 renal) greater than 100 µM and a TGI (UO-31 renal) greater than 100 µM. It also gave a TGI (A549 NSCLC) greater than 100 µM.
